According to paper PMC13162264, “Chemoproteomic Elucidation of β‑Lactam Drug Targets in Mycobacterium abscessus” (ACS Infectious Diseases, 2026):
Values after ≈ are worked out from the molar mass of the structure shown.

Key:
[1] = system: M9510 (clinical strain, subsp. massiliense); set-up: method as in not given; conditions: supplemented Middlebrook 7H9 broth, reported values, ref not given; cited from earlier work
[2] = system: Mab 19977 (ATCC 19977, subsp. abscessus); set-up: method as in not given; conditions: supplemented Middlebrook 7H9 broth, reported values, ref not given; cited from earlier work
[3] = human, in vivo; cited from earlier work
[4] = system: M. abscessus subsp. abscessus (n = 1344 isolates); set-up: method as in Hunkins et al.; conditions: ref Hunkins et al.; cited from earlier work
[5] = system: β-lactam targets in Mab 19977 whole-cell lysates; experiment: β-lactam competition of Mero-sCy5 labeling in whole-cell lysates; assay type: binding, Mycobacterium abscessus subsp. abscessus; conditions: Mab 19977 lysate; drug 1 mM, then Mero-sCy5 5 μM
DacB2 = DacB2 (Mycobacteroides abscessus, UniProt B1MDJ1); experiment: β-lactam IC50 by drug treatment then Bocillin FL labeling, in-gel fluorescence; assay type: binding, Mycobacterium abscessus
DacB2, sequence (B1MDJ1 entry or part of it): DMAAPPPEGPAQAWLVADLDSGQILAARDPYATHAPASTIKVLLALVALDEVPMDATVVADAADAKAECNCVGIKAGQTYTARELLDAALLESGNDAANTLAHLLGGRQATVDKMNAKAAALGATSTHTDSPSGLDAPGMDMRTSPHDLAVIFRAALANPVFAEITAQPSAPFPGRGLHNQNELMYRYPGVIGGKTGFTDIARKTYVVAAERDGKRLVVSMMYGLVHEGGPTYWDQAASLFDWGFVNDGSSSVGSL

PbpB = PbpB (Mycobacteroides abscessus, UniProt B1MP31); experiment: as above; assay type: binding; conditions: 0.5 μM enzyme, drug 30 min 37 °C, then 10 µM Bocillin FL
PbpB, sequence (B1MP31 entry or part of it): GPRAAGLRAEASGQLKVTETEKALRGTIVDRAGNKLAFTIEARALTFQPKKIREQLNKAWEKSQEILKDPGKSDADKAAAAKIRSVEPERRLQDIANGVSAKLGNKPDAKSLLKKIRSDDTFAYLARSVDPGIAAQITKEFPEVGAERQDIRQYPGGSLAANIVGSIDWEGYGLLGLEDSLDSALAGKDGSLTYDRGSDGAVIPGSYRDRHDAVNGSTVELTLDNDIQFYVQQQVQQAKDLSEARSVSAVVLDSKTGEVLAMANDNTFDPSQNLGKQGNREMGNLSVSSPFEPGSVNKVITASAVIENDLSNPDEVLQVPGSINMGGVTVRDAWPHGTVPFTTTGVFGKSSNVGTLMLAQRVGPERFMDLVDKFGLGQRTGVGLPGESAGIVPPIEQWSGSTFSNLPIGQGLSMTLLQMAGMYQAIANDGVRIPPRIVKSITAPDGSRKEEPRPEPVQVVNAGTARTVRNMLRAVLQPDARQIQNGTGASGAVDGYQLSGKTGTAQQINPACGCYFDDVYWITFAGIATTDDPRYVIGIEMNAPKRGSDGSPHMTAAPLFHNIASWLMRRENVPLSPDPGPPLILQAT

[6] = system: M. abscessus subsp. massiliense (n = 754 isolates); set-up: method as in Hunkins et al.; conditions: ref Hunkins et al.; cited from earlier work
Ldt4 [7] = target: T1, Ldt4 (Mycobacteroides abscessus, UniProt B1MKW1); experiment: β-lactam competition of ABP labeling, recombinant enzyme; assay type: binding, Mycobacterium abscessus; conditions: drug 500 μM, 30 min 37 °C, then 10 μM Mero-sCy5 or Bocillin FL
T1 sequence (B1MKW1 entry or part of it): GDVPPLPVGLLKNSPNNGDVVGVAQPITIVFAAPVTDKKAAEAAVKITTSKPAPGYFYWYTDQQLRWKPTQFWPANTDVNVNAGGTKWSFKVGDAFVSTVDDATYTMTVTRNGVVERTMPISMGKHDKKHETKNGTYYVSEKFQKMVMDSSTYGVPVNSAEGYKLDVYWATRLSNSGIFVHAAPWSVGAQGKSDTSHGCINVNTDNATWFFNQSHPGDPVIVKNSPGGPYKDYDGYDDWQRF

MAB_0330 [8] = target: T2, MAB_0330 (Mycobacteroides abscessus, UniProt B1MFM9); experiment: as above; assay type: binding; conditions: drug 500 μM, 30 min 37 °C, then 10 μM Mero-sCy5 or Bocillin FL
T2 sequence (B1MFM9 entry or part of it): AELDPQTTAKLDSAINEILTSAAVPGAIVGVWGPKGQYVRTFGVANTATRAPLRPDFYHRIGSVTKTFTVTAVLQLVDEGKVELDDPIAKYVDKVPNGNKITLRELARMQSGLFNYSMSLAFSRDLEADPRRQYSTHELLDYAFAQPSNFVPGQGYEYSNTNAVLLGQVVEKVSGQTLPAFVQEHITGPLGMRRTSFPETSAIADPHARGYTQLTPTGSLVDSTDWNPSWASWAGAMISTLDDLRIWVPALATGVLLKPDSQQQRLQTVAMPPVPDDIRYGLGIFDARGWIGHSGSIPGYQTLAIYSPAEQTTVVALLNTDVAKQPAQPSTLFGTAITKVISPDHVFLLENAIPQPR

[9] = system: β-lactam targets in M9510 whole-cell lysates; experiment: β-lactam competition of Mero-sCy5 labeling in whole-cell lysates; assay type: binding, Mycobacterium abscessus subsp. massiliense; conditions: drug 1 mM, then Mero-sCy5 5 μM
Ldt4 [10] = target: T1, Ldt4; experiment: β-lactam IC50 by drug treatment then Bocillin FL labeling, in-gel fluorescence; assay type: binding, Mycobacterium abscessus; conditions: drug 30 min 37 °C, then 10 µM Bocillin FL
MAB_4800 = MAB_4800 (Mycobacteroides abscessus, UniProt B1MM83); experiment: as above; assay type: binding; conditions: 0.5 μM enzyme, drug 30 min 37 °C, then 10 µM Bocillin FL
MAB_4800, sequence (B1MM83 entry or part of it): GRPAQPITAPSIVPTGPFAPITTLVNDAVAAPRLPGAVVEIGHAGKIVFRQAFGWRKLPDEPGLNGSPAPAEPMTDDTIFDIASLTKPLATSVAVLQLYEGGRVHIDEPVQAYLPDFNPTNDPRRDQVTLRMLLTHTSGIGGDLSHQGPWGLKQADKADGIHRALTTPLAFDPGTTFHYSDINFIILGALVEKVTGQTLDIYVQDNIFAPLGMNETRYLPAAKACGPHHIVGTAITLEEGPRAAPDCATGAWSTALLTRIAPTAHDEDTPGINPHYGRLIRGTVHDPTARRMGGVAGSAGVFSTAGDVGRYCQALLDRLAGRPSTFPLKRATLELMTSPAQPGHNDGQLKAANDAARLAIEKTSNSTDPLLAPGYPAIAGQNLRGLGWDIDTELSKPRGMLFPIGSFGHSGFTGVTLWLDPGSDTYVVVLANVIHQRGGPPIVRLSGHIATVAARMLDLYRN

MAB_0330 [11] = target: T2, MAB_0330; experiment: as above; assay type: binding; conditions: fit not accurate, error unacceptably large (± 180 μM IPM, ± 240 μM FOX)
Description: Adjustment of image brightness and contrast and band intensity quantification was
performed with Fiji. Statistical comparison of mean band intensities between no
treatment and drug-treated enzymes was done using one-way ANOVA with Tukey
multiple comparison test in GraphPad Prism software.
We determined the inhibitory concentration 50 (IC50) of imipenem and cefoxitin for
PbpB, Ldt4, DacB2, and MAB_4800. We measured the IC50 by drug-treatment followed
by Bocillin FL labeling using the method described by Carlson23. Purified enzyme (0.5
μM) was treated with a range of inhibitor concentrations (.01 – 5000 µM) or buffer only
(NT) in 50 mM Tris-Cl (pH 8.0 at 4 °C), 150 mM NaCl for 30 min at 37 °C. Samples
were then incubated with 10 µM Bocillin FL for 30 min at 37 °C. Reactions were
stopped by addition of 1X TCEP SDS-PAGE loading dye and heating (5 min, 75 °C).
Technical duplicates were loaded and resolved on the same gel to standardize
background. Gels were destained of free probe overnight (30% methanol, 10% acetic
acid in water) and scanned using the Cy2 laser/emission filter on an Amersham
Typhoon imager. The experiment was repeated twice for each enzyme.
Mean band intensities were measured in ImageJ by drawing a box tightly around the
band. The inhibitor concentration versus mean band intensity was plotted and fit to a […]
GraphPad Prism software. Final values were calculated by averaging the IC50 across […]

[12] = system: Mab 19977 whole-cell lysates (REP and CS); conditions: Mab 19977 lysates, 10 μM probe
Description: (§1) (D) Mero-sCy5- and (E) Bocillin FL-labeled 19977 and M9510 lysates (30 μg) were resolved by SDS-PAGE (12 μg/lane) and scanned for fluorescent signal.
(§2) Normalized lysates were ABP-labeled, resolved by SDS-PAGE, and gels were scanned for fluorescent signal (Figure S3).
(§3) In-Gel Analysis of Mero-sCy5 and Bocillin FL Binding
(§4) Normalized total protein lysates (30 μg) were labeled with 10 μM Meropenem-sulfoCy5 6
(§5) (Mero-sCy5) or 10 μM Bocillin FL (Invitrogen) for 60 min at RT, protected from light.
(§6) Labeling reactions were quenched by the addition of 1x TCEP loading dye (5X stock:
(§7) glycerol). Samples were heated to 75 °C for 10 min and resolved (12 μg/lane) via SDS-
(§8) PAGE (Criterion Bis-Tris gels, XT-MES running buffer, Bio-Rad). Gels were de-stained
(§9) of free probe overnight (30% methanol, 10% acetic acid in water) and scanned using
(§10) Amersham Typhoon imager (Cytiva). Adjustment of image brightness and contrast and
(§11) band intensity quantification were performed with Fiji7. Total protein staining was done
(§12) using Coomassie R-250 (Thermo Scientific, CAS 6104-58-1) (Figure S3).

[13] = system: M9510 whole-cell lysates (REP and CS); conditions: 10 μM probe
Description: as §1, §2, §3, §4, §5, §6, §7, §8, §9, §10, §11, §12

[14] = system: M9510 (clinical strain, subsp. massiliense); experiment: Reported MIC in supplemented Middlebrook 7H9 broth; assay type: cell-based, Mycobacterium abscessus subsp. massiliense; conditions: from past characterization of M9510, ref not given

CO[C@H]1/C=C/O[C@@]2(C)Oc3c(C)c(O)c4c(c3C2=O)C2=NC3(CCN(CC(C)C)CC3)NC2=C(NC(=O)/C(C)=C\C=C\[C@H](C)[C@H](O)[C@@H](C)[C@@H](O)[C@@H](C)[C@H](OC(C)=O)[C@@H]1C)C4=O [rifabutin]
susceptibility indicated by reported MIC [1]: susceptible
susceptibility indicated by reported MIC [2]: susceptible

CO[C@@]1(NC(=O)Cc2cccs2)C(=O)N2C(C(=O)O)=C(COC(N)=O)CS[C@@H]21 [FOX, cefoxitin]
fCss,avg (median unbound average steady-state plasma concentration) [3]: 4.0 µg/mL
MIC90 [4]: 64 µg/mL (≈ 150 µM)
MIC [1]: 64 µg/mL (≈ 150 µM)
inhibition of Mero-sCy5 labeling of targets in lysate [5]: inhibited many targets but not all
IC50 (DacB2): 0.4 ± 0.9 µM
fold more potent inhibition of DacB2 than IPM (DacB2; IC50 comparison FOX vs IPM): 5 fold
IC50 (PbpB): 12 ± 4 µM
MIC90 [6]: 64 µg/mL (≈ 150 µM)
inhibition of fluorescent ABP binding to Ldt4 (Ldt4 [7]): did not inhibit
inhibition of fluorescent ABP binding to MAB_0330 (MAB_0330 [8]): weakly inhibited
inhibition of Mero-sCy5 labeling of targets in lysate [9]: inhibited many targets but not all
IC50 Ldt4 (Ldt4 [10]; 0.5 μM enzyme): did not inhibit
IC50 (Ldt4 [10]; IC50 Ldt4, 0.5 μM enzyme): > 1000 µM
IC50 (MAB_4800): > 1000 µM
IC50 MAB_4800 (MAB_4800): did not inhibit
IC50 (MAB_0330 [11]): 270 µM
MIC [2]: 64 µg/mL (≈ 150 µM)

CC1(C)S[C@@H]2[C@H](NC(=O)Cc3ccccc3)C(=O)N2[C@H]1C(=O)O [PEN, penicillin G]
inhibition of Mero-sCy5 labeling of targets in lysate [5]: largely ineffective inhibitors
inhibition of Mero-sCy5 labeling of targets in lysate [9]: largely ineffective inhibitors

NCC[C@H](O)C(=O)N[C@@H]1C[C@H](N)[C@@H](O[C@H]2O[C@H](CN)[C@@H](O)[C@H](O)[C@H]2O)[C@H](O)[C@H]1O[C@H]1O[C@H](CO)[C@@H](O)[C@H](N)[C@H]1O [amikacin]
susceptibility indicated by reported MIC [1]: susceptible
susceptibility indicated by reported MIC [2]: susceptible

C[C@@H](O)[C@H]1C(=O)N2C(C(=O)O)=C(S[C@H]3C[C@@H](C(=O)N(C)C)N(C(=O)CCCCC[N+]4=C(/C=C/C=C/C=C5/N(C)c6ccc(S(=O)(=O)O)cc6C5(C)C)C(C)(C)c5cc(S(=O)(=O)[O-])ccc54)C3)[C@H](C)[C@H]12 [Mero-sCy5]
targets labeled in gel-resolved lysate [12]: labeled more targets than Bocillin FL
targets labeled in gel-resolved lysate [13]: labeled more targets than Bocillin FL

C[C@@H](O)[C@H]1C(=O)N2C(C(=O)O)=C(S[C@@H]3CN[C@H](C(=O)N(C)C)C3)[C@H](C)[C@H]12 [meropenem]
inhibition of Mero-sCy5 labeling of targets in lysate [5]: abolished ABP labeling
inhibition of Mero-sCy5 labeling of targets in lysate [9]: abolished ABP labeling

C=CC1=C(C(=O)O)N2C(=O)[C@@H](NC(=O)/C(=N\O)c3csc(N)n3)[C@H]2SC1 [cefdinir]
MIC [1]: 128 µg/mL (≈ 324 µM)
MIC [2]: 128 µg/mL (≈ 324 µM)

C[C@@H](O)[C@H]1C(=O)N2C(C(=O)O)=C(S[C@@H]3CN[C@H](CNS(N)(=O)=O)C3)[C@H](C)[C@H]12 [doripenem]
MIC [1]: 64 µg/mL (≈ 152 µM)
increased MIC in M9510 relative to 19977 [14]: 4 fold
MIC [2]: 16 µg/mL (≈ 38 µM)
